Data as given in the Deep4Chem optical property database.
Values belong to the compound of their own block, whether it stands above or below them.

Test: solvent given as SMILES

Compound: c1ccc(-c2oc(-c3ccccc3)c3ccccc23)cc1
absorption maximum (in C1CCCCC1): 411 nm | absorption maximum (in C1CCOC1): 413 nm | absorption maximum (in CC#N): 411 nm | absorption maximum (in CCO): 411 nm | absorption maximum (in CN(C)C=O): 415 nm | absorption maximum (in CS(C)=O): 416 nm | absorption maximum (in Cc1ccccc1): 414 nm

Compound: Cc1ccc(C(=O)/C=C/c2ccc(N(C)C)cc2)cc1
absorption maximum (in C1CCOC1): 404 nm | absorption maximum (in CC#N): 411 nm | absorption maximum (in CC(=O)O): 427 nm | absorption maximum (in CC(C)=O): 405 nm | absorption maximum (in CCO): 422 nm | absorption maximum (in CN(C)C=O): 419 nm | absorption maximum (in CO): 419 nm | absorption maximum (in Cc1ccccc1): 404 nm | absorption maximum (in ClC(Cl)Cl): 412 nm | absorption maximum (in c1ccccc1): 404 nm

Compound: COCCOCCOCCOCC(COCCOCCOCCOC)Oc1cc(/C=C/c2ccc(/C=C(\C#N)c3ccc(C(F)(F)F)cc3)cc2)c(OC(COCCOCCOCCOC)COCCOCCOCCOC)cc1/C=C/c1ccc(/C=C(\C#N)c2ccc(C(F)(F)F)cc2)cc1
absorption maximum (in ClCCl): 439 nm

Compound: CCn1c2ccccc2c2c3nsnc3c3c4ccccc4n(CC)c3c21
absorption maximum (in CN(C)C=O): 420 nm | absorption maximum (in Cc1ccccc1): 420 nm | absorption maximum (in ClCCl): 420 nm

Compound: COc1cc2c(cc1-c1ccccc1)Cc1c3c(c4c(c1-2)-c1cc(OC)c(-c2ccccc2)cc1C4)C(=O)N(CCC(C)C)C3=O
absorption maximum (in C1CCOC1): 405 nm | absorption maximum (in CC#N): 406 nm | absorption maximum (in CC(C)=O): 407 nm | absorption maximum (in CCOC(C)=O): 405 nm | absorption maximum (in CS(C)=O): 413 nm | absorption maximum (in Cc1ccccc1): 405 nm | absorption maximum (in ClC(Cl)Cl): 414 nm | absorption maximum (in ClCCl): 411 nm

Compound: COc1ccc(-n2nc(C#N)c(NC3CCCCC3)n2)cc1
absorption maximum (in CC#N): 330 nm | absorption maximum (in CCCCCC): 325 nm | absorption maximum (in CCO): 333 nm | absorption maximum (in CN(C)C=O): 336 nm | absorption maximum (in ClC(Cl)Cl): 330 nm

Compound: O=P1(c2ccccc2)c2cc(N3c4ccccc4Sc4ccccc43)ccc2-c2ccc(N3c4ccccc4Sc4ccccc43)cc21
absorption maximum (in Cc1ccccc1): 399 nm

Compound: Cc1cc(-c2ccc(N(c3ccccc3)c3ccccc3)cc2)c2nsnc2c1-c1ccc(N(c2ccccc2)c2ccccc2)cc1
absorption maximum (in ClCCl): 432 nm

Compound: CCCC1=Cc2nc1ccc1[nH]c(cc1CCC)c1nc(c(OC)cc3[nH]c2cc3CCC)C(CCC)=C1
absorption maximum (in Cc1ccccc1): 682 nm

Compound: O=P(c1ccccc1)(c1ccccc1)c1ccc(-n2c(-c3ccccc3P(=O)(c3ccccc3)c3ccccc3)nc3ccccc32)cc1
absorption maximum (in ClCCl): 300 nm

Compound: CCCCCCCCOc1ccc(-c2c3c4n(c(-c5ccc(OCCCCCCCC)cc5)c3c3n2[B-](F)(F)[n+]2c(ccc5cc(C(C)(C)C)ccc52)C=3C#N)[B-](F)(F)[n+]2c(ccc3cc(C(C)(C)C)ccc32)C=4C#N)cc1
absorption maximum (in ClC(Cl)Cl): 754 nm

Compound: CC(C)(C)c1c2ccc3[nH]c4c(ccc5c(C(C)(C)C)c(ccc6[nH]c7c(ccc1c7n2)c6C(C)(C)C)nc54)c3C(C)(C)C
absorption maximum (in Cc1ccccc1): 764 nm

Compound: CC1(C)c2ccccc2N(c2ccc(-c3nc(-c4ccccc4)cc(-c4ccccc4)n3)cc2)c2ccccc21
absorption maximum (in Cc1ccccc1): 366.6 nm

Compound: CCC1(CC)c2cc(B(c3c(C)cc(C)cc3C)c3c(C)cc(C)cc3C)ccc2-c2c1c1c(c3c2C(CC)(CC)c2cc(N(c4ccccc4)c4ccccc4)ccc2-3)C(CC)(CC)c2cc(B(c3c(C)cc(C)cc3C)c3c(C)cc(C)cc3C)ccc2-1
absorption maximum (in C1CCOC1): 362 nm | absorption maximum (in CC#N): 359 nm | absorption maximum (in CC(C)=O): 360 nm | absorption maximum (in CCCCCC): 361 nm | absorption maximum (in CCCO): 360 nm | absorption maximum (in CCO): 360 nm | absorption maximum (in Cc1ccccc1): 363 nm | absorption maximum (in ClC(Cl)Cl): 364 nm

Compound: c1ccc(-c2nc(-c3ccc(-c4ccc(N(c5ccccc5)c5ccccc5)cc4)cn3)oc2-c2ccccc2)cc1
absorption maximum (in C1CCOC1): 351 nm | absorption maximum (in C1COCCO1): 354 nm | absorption maximum (in CC#N): 353 nm | absorption maximum (in CC(C)=O): 352 nm | absorption maximum (in CC(C)OC(C)C): 351 nm | absorption maximum (in CCCCCC): 353 nm | absorption maximum (in CCCCOCCCC): 353 nm | absorption maximum (in CCN(CC)CC): 348 nm | absorption maximum (in CCOC(C)=O): 351 nm | absorption maximum (in CCOCC): 348 nm | absorption maximum (in Cc1ccccc1): 358 nm | absorption maximum (in c1ccccc1): 359 nm

Compound: CC1(C)c2ccccc2N(c2ccc(-c3cc(C#N)c(C#N)cc3-c3ccc(N4c5ccccc5C(C)(C)c5ccccc54)cc3)cc2)c2ccccc21
absorption maximum (in Cc1ccccc1): 384 nm

Compound: c1ccc(-c2nc(-c3ccccc3)nc(-c3ccc(-n4c5ccc(-n6c7ccccc7c7ccccc76)cc5c5cc(-n6c7ccccc7c7ccccc76)ccc54)cc3)n2)cc1
absorption maximum (in Cc1ccccc1): 368 nm

Compound: C(=C\c1ccncn1)/c1ccc(N(c2ccccc2)c2ccc(/C=C/c3ccncn3)cc2)cc1
absorption maximum (in ClCCl): 422 nm

Compound: CCCCCCCCCCCCCCCCOC(=O)c1ccc(N(c2ccccc2)c2ccccc2)cc1
absorption maximum (in C1CCCCC1): 334 nm | absorption maximum (in C1CCOC1): 334 nm | absorption maximum (in CC#N): 332 nm | absorption maximum (in CCOC(C)=O): 334 nm | absorption maximum (in ClCCCl): 336 nm | absorption maximum (in c1ccccc1): 334 nm

Compound: CCCCCCCCOc1ccc2c3cccc4c(OCCCCCCCC)ccc(c5cccc1c52)c43
absorption maximum (in C1CCOC1): 460 nm | absorption maximum (in Cc1ccccc1): 462 nm | absorption maximum (in ClC(Cl)(Cl)Cl): 462 nm | absorption maximum (in ClC(Cl)Cl): 462 nm | absorption maximum (in ClCCl): 461 nm | absorption maximum (in c1ccncc1): 464 nm

Compound: CCn1c(-c2ccc(-c3ccc(-c4ccc(-c5n(CC)c6ccccc6[n+]5CC)cc4)c(C)c3)cc2)[n+](CC)c2ccccc21
absorption maximum (in O): 290 nm

The remaining lines, values ahead:

absorption maximum (in CC#N): 407 nm | absorption maximum (in O): 415 nm
Compound: Nc1nc2ccccc2[n+]([O-])n1

absorption maximum (in O): 493 nm
Compound: O=C([O-])c1cc(N2C(=O)C=CC2=O)ccc1-c1c2cc(F)c(=O)cc-2oc2cc([O-])c(F)cc12

absorption maximum (in CCO): 333 nm | absorption maximum (in ClC(Cl)Cl): 339 nm
Compound: COc1ccc2c(-c3nc(-c4ccccc4F)no3)cc(=O)oc2c1

absorption maximum (in C1CCOC1): 372 nm
Compound: O=S1(=O)C(c2cccs2)=C(c2cccs2)c2ccccc21

absorption maximum (in ClCCl): 432 nm
Compound: CCCCCCCCCCCCN1C(=O)c2c(c3ccc4cc(-c5ccccc5)c(OC)cc4c3c3c2ccc2cc(-c4ccccc4)c(OC)cc23)C1=O

absorption maximum (in ClC(Cl)Cl): 400 nm
Compound: Cc1ccc(-c2oc3cccc4c5c(-c6ccc(C)cc6)c(=N)oc6cccc(c2c34)c65)cc1

absorption maximum (in CCO): 500 nm
Compound: CCCCOc1c(C=C2N(C)c3ccccc3C2(C)C)c(=O)c1=S

absorption maximum (in CCO): 335 nm
Compound: Nc1cc(F)c(C(=O)c2cc(F)c(F)cc2F)cc1F

absorption maximum (in C1COCCO1): 393 nm
Compound: N#Cc1ccc(/C=C2\N=C(c3ccccc3)NC2=O)cc1

absorption maximum (in ClCCl): 380 nm
Compound: CCn1c2ccc(-c3ccc(-c4cccs4)s3)cc2c2cc(-c3ccc(-c4cccs4)s3)ccc21

absorption maximum (in C1CCCCC1): 599 nm | absorption maximum (in CCOC(C)=O): 601.5 nm
Compound: CC1=[N+]2C(=C(c3ccc(C(=O)c4ccccc4)cc3)c3ccc(C)n3[B-]2(F)F)C=C1c1cc2n(c1)[B-](F)(F)[N+]1=CC=CC1=C2c1c(C)cc(C)cc1C

absorption maximum (in ClCCl): 334 nm
Compound: CC(C)(C)NC(=O)c1cccc2ccc3c4cc(F)ccc4c4ccc(F)cc4c3c12

absorption maximum (in CC#N): 514 nm | absorption maximum (in CS(C)=O): 524 nm
Compound: [O-]c1c(-c2nc3ccccc3s2)cc2ccc3cccc4ccc1c2c34

absorption maximum (in CC#N): 372 nm
Compound: O=C(O)c1ccc(-c2nc(-c3ccccc3)c3ccccn23)cc1

absorption maximum (in CCO): 357 nm
Compound: CC(C)Nc1cc(F)c(C(=O)c2cc(F)c(NC(C)C)cc2F)cc1F

absorption maximum (in O): 558 nm
Compound: CC1(C)C2=C3C=C4C5=[N+](CCC4OC3CCN2c2ccc(CC(=O)NCCCCCCO)cc21)c1ccc(S(=O)(=O)[O-])cc1C5(C)C (stereo unspecified)

absorption maximum (in ClC(Cl)Cl): 338 nm
Compound: CCCCn1c2ccc(-c3ccc(OC)cc3)cc2c2ccc3c4cc(-c5ccc(OC)cc5)ccc4n(CCCC)c3c21

absorption maximum (in C1COCCO1): 396 nm | absorption maximum (in CC#N): 398 nm | absorption maximum (in CCCCOCCCC): 395 nm | absorption maximum (in CCOC(C)=O): 394 nm
Compound: Clc1nc(Cl)nc(Nc2ccc3cc4ccccc4cc3c2)n1

absorption maximum (in ClCCl): 522 nm
Compound: C(#Cc1c2ccccc2c(-c2ccccc2)c2cc3ccccc3cc12)c1ccccc1

absorption maximum (in C1CCCCC1): 329 nm
Compound: c1ccc(-c2c3c(c(-c4ccccc4)c4c2-c2ccccc2C4)-c2ccccc2C3)cc1

absorption maximum (in C1COCCO1): 538 nm | absorption maximum (in CN(C)C=O): 543 nm | absorption maximum (in CS(C)=O): 546 nm
Compound: CC(C)(C)NS(=O)(=O)c1ccc2c(c1)C(=O)/C(=C1\Sc3ccc(S(=O)(=O)NC(C)(C)C)cc3C1=O)S2

absorption maximum (in ClC(Cl)Cl): 775 nm
Compound: CC1=c2cc3c(C)c4n(c3cc2=[N+]2C1=Cc1c3ccccc3c(C)n1[B-]2(F)F)[B-](F)(F)[N+]1=C(C)c2ccccc2C1=C4

absorption maximum (in C1CCOC1): 336 nm | absorption maximum (in CC#N): 336 nm | absorption maximum (in CN(C)C=O): 336 nm | absorption maximum (in ClCCl): 334 nm | absorption maximum (in c1ccccc1): 336 nm
Compound: CCN1c2ccc(-c3cc(C(F)(F)F)[nH]n3)cc2Sc2cc(-c3cc(C(F)(F)F)[nH]n3)ccc21

absorption maximum (in C1CCOC1): 500 nm
Compound: FC(F)(F)C(F)(F)C(F)(F)C1=NC2=C(c3ccccc3)C=C3c4cc(-c5ccccc5)c5nc(C(F)(F)C(F)(F)C(F)(F)F)nc6c(-c7ccccc7)cc(c4c56)=C4C=C(c5ccccc5)C(=N1)C2C34 (stereo unspecified)

absorption maximum (in CCCCCC): 284 nm | absorption maximum (in CCCCO): 289 nm | absorption maximum (in CCO): 290 nm | absorption maximum (in CCOC(C)=O): 288 nm | absorption maximum (in ClCCl): 284 nm
Compound: COc1cccc(-n2c(-c3ccc(F)cc3)nc(C)c2C)c1

absorption maximum (in C1COCCO1): 332 nm | absorption maximum (in CC#N): 333 nm | absorption maximum (in CO): 335 nm | absorption maximum (in ClCCl): 338 nm
Compound: CCCCNC(=O)c1nc2c(N(C)C)nc(N(C)C)nc2n1Cc1ccccc1

absorption maximum (in CC#N): 348 nm | absorption maximum (in CCCCCC): 350 nm | absorption maximum (in CO): 346 nm | absorption maximum (in c1ccccc1): 356 nm
Compound: O=c1oc2cc3ccccc3cc2nc1-c1ccccc1

absorption maximum (in ClCCl): 347 nm
Compound: F[B-]1(F)Oc2ccc(Br)cc2-c2c3c(c4c([n+]21)CCc1ccccc1-4)CCc1ccccc1-3

absorption maximum (in CC#N): 418 nm
Compound: C[n+]1cc2ccc3c[n+](C)cc4ccc(c1)c2c34

absorption maximum (in CO): 400 nm
Compound: Cc1cc(C)c(B(c2cc(C#Cc3ccccc3)sc2-c2sc(C#Cc3ccccc3)cc2P(=O)(c2ccccc2)c2ccccc2)c2c(C)cc(C)cc2C)c(C)c1

absorption maximum (in C1CCCCC1): 398 nm
Compound: N#Cc1c(-c2ccccc2)cc(N2c3ccccc3Oc3ccccc32)cc1-c1ccccc1
